Measured values published in patent EP4624466A1, “DEGRADER FOR DECOMPOSING CMET PROTEIN, AND PHARMACEUTICAL COMPOSITION COMPRISING SAME” (Innocure Therapeutics, Inc., priority 2022, dated 2024).
Read-outs that look alike come from different tables or passages of the source.

Experiments:
SNU-638 = assay: Cell viability / antiproliferative assay (WST-8), SNU-638; type: cell-based, human; conditions: read-out: SNU-638 IC50
Procedure: c-MET overexpressing human gastric cancer cell lines [MKN45] and [SNU638] were cultured in RPMI medium with 10% fetal bovine serum, penicillin (100U/ml), and streptomycin (100mg/ml), and c-MET exon 14 skipping mutant human gastric cancer cell lines [Hs746T] were cultured in DMEM media. The c-MET overexpressing human lung cancer cell line EBC-1 was cultured in MEM media with the addition of 10% fetal bovine serum, penicillin (100U/ml), and streptomycin (100mg/ml). […] The compound synthesized in accordance with the present invention was prepared with a raw material solution of 10 mM dissolved in DMSO (dimethyl sulfoxide), and was sequentially diluted and processed.
In order to observe the inhibitory activity on cell growth, cells were dispensed in a 96-well plate at a concentration of 5,000 cells/well, and then treated with the compound prepared at various concentrations for 72 hours. The viability of the cells was calculated using GraphicPad Prism 8.0 software by adding 10 ml per well of WST-8 (water soluble tetrazolium salt) sample, which reacts with dehydrogenase present in the electron transport system of mitochondria to produce formazon, incubated for 2 hours, and measured absorbance at 450 nm.

c-MET [1] = target: T1, c-MET (Homo sapiens, UniProt P08581); assay: c-MET protein degradation (Simple Western), SNU-638; type: cell-based; set-up: assess the resolution of the compound of the present invention for c-MET expressed in cells; endogenous in cells; host or cells: SNU638 (human gastric cancer); conditions: c-MET overexpressing gastric cancer cell line SNU-638, treated 24 hours; Table 2
Procedure: (§1) In order to assess the resolution of the compound of the present invention for c-MET expressed in cells, cells were dispensed in a 12-well plate at a concentration of 2 × 10^5 cells/well, and then gastric cancer cell lines were treated with samples for 24 hours and lung cancer cell lines were treated for 48 hours. Cell lysates were collected using a scraper on ice, centrifuged at 4°C15,000 rpm for 30 min to obtain a protein-containing supernatant. Protein expression was then measured using the Simple Western Automated Western Blot System Abby instrument using 3 µg of protein for each sample. SDS and heat-induced denaturation proteins were separated by molecular weight, attached to capillary, reacted with anti-c-MET or anti-GAPDH antibodies, which are primary antibodies, and then reacted with HRP-conjugated secondary antibodies, and analyzed the protein expression signal with compass software. Protein expression was normalized based on the expression value of GAPDH, and protein development in each sample was measured as a percentage (%) based on 100% of samples treated with 0.1% DMSO carriers, and DC50 (concentration of a compound where 50% protein inhibition is achieved) was calculated from the change in protein expression amount due to compound treatment.

MKN-45 = assay: Cell viability / antiproliferative assay (WST-8), MKN-45; conditions: for IC50: read-out: MKN-45 IC50;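 on all read-outs here: MKN-45 is a human gastric cancer line overexpressing c-MET, growth inhibition read as WST-8 formazan absorbance at 450 nm after 2 h dye incubation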
c-MET [2] = target: T1, c-MET; assay: c-MET protein degradation (Simple Western), MKN-45; type: cell-based; set-up: assess the resolution of the compound of the present invention for c-MET expressed in cells; endogenous in cells; host or cells: MKN45 (human gastric cancer); conditions: c-MET overexpressing gastric cancer cell line MKN-45, treated 24 hours
Procedure: as §1

[3] = SNU-638 cells, 72 hours, WST-8, Table 2
[4] = MKN-45 cells, 72 hours, WST-8, Table 1

T1 sequence (P08581 25-1390): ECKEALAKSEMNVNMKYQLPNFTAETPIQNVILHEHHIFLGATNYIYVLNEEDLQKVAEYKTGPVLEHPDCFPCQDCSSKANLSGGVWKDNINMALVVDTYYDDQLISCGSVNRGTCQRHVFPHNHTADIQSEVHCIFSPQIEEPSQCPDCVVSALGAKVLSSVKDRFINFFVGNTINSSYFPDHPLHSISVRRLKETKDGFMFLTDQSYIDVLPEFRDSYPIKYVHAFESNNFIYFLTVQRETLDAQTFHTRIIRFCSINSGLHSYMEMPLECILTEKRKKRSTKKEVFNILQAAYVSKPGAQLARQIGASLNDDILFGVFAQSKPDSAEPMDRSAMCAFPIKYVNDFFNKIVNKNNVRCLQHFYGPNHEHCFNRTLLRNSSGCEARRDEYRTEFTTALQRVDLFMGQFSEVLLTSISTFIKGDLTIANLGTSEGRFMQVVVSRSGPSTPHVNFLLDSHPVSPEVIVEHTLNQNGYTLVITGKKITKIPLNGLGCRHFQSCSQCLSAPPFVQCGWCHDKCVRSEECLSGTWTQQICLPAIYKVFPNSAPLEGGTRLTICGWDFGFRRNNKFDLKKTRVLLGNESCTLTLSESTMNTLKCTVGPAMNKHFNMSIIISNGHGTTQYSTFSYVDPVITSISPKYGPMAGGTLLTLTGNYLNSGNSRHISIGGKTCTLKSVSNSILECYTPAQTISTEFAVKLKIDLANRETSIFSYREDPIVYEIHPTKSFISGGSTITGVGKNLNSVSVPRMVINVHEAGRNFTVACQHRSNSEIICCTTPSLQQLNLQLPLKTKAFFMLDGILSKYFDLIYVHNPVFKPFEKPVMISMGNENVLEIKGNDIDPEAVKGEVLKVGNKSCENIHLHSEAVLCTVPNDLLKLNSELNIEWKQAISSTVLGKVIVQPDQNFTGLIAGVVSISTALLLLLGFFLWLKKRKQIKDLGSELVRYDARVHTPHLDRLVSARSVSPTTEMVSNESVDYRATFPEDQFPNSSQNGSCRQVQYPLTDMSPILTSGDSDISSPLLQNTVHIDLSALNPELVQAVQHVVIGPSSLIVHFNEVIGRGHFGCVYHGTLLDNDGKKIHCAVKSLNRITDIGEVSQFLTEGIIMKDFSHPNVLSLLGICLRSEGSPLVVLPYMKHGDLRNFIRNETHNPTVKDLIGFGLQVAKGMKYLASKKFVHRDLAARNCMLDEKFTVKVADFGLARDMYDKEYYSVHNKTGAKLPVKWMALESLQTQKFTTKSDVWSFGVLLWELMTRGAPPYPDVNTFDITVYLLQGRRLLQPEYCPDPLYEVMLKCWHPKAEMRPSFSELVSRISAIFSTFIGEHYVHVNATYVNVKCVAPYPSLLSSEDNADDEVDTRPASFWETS

N#Cc1cccc(-c2ccc(=O)n(Cc3ccc(-c4ncc(OCC5CCN(CCCC#Cc6cccc7c(=O)n(C8CCC(=O)NC8=O)ncc67)CC5)cn4)cc3)n2)c1 (stereo not drawn) [ICT-0001303]
IC50 (SNU-638; [3]): < 100 nM
DC50 (c-MET [1]): 100 to 1000 nM

Cn1cc(-c2cnc3c(nnn3C[C@@H]3CN(c4ncc(-c5ccc(CN6CCN(C(=O)CCCCNc7ccc8c(=O)n(C9CCC(=O)NC9=O)ncc8c7)CC6)cc5)cn4)CCO3)n2)cn1 (stereo partly drawn) [ICT-0000924, 3-(6-((5-(4-(4-(2-((S)-2-((5-(1-methyl-1H-pyrazole-4-yl)-1H-[1,2,3]triazolo[4,5-b]pyrazine-1-yl)methyl)morpholino)pyrimidine-5-yl)benzyl)piperazine-1-yl)5-oxopentyl)amino)1-oxopthalazine-2(1H)-yl)piperidine-2,6-dione]
IC50 (SNU-638; Homo sapiens, SNU-638, 72 h): < 100 nM
IC50 (MKN-45; Homo sapiens, MKN-45, 72 h): < 100 nM
DC50 (c-MET [2]; Table 1): < 100 nM

N#Cc1cccc(-c2ccc(=O)n(Cc3cccc(-c4ncc(OCC5CCN(C(=O)CN6CCN(c7ccc8c(=O)n(C9CCC(=O)NC9=O)ncc8c7)CC6)CC5)cn4)c3)n2)c1 (stereo not drawn) [ICT-0000979, 3-(1-{[3-(5-{[1-(2-{4-[2-(2,6-dioxopiperidine-3-yl)-1-oxo-1,2-dihydrophthalazine-6-yl]piperazine-1-day}acetyl)piperidine-4-yl]methoxy}pyrimidine-2-yl)phenyl]methyl}-6-oxo-1,6-dihydropyridazine-3-yl)benzonitrile]
IC50 (SNU-638; Homo sapiens, SNU-638, 72 h): 100 to 1000 nM
MKN-45 IC50 (MKN-45; MKN-45 cells, 72 hours, WST-8, Table 2): A.
DC50 (c-MET [2]; Table 2): < 100 nM
DC50 (c-MET [1]): 100 to 1000 nM

Cc1nn(C2CCC(=O)NC2=O)c(=O)c2ccc(N3CCN(C[C@@H]4CN(CCN5CCC(COc6cnc(-c7cccc(Cn8nc(-c9cccc(C#N)c9)ccc8=O)c7)nc6)CC5)CCO4)CC3)cc12 (stereo partly drawn) [ICT-0001315]
IC50 (SNU-638; [3]): < 100 nM

Cc1nn(C2CCC(=O)NC2=O)c(=O)c2cc(N3CCN(CC4CCN(CCN5CCC(COc6cnc(-c7cccc(Cn8nc(-c9cccc(C#N)c9)ccc8=O)c7)nc6)CC5)CC4)CC3)c(F)cc12 (stereo not drawn) [ICT-0001326]
IC50 (SNU-638; Homo sapiens, SNU-638, 72 h): 100 to 1000 nM
DC50 (c-MET [1]): > 1000 nM

Cn1cc(-c2cnc3c(nnn3C[C@@H]3CN(c4ncc(-c5ccc(CN6CCN(C(=O)CCCNc7ccc8c(=O)n(C9CCC(=O)NC9=O)ncc8c7)CC6)cc5)cn4)CCO3)n2)cn1 (stereo partly drawn) [ICT-0000922, 3-{6-[(4-{4-[(4-{2-[(2S)-2-{[5-(1-methyl-1H-pyrazole-4-yl)-1H-[1,2,3]triazolo[4,5-b]pyrazine-1-yl]methyl}morpholine-4-il]pyrimidine-5-yl}phenyl)methyl]piperazine-1-yl}-4-oxobutyl)amino]-1-oxo-1,2-dihydroptalazine-2-yl}piperidine-2,6-dione]
IC50 (SNU-638; Homo sapiens, SNU-638, 72 h): < 100 nM
IC50 (MKN-45; Homo sapiens, MKN-45, 72 h): < 100 nM
DC50 (c-MET [2]; Table 1): < 100 nM

Cn1cc(-c2cnc3c(nnn3C[C@@H]3CN(c4ncc(-c5ccc(CN6CCN(C(=O)CCCCCNc7ccc8c(=O)n(C9CCC(=O)NC9=O)ncc8c7)CC6)cc5)cn4)CCO3)n2)cn1 (stereo partly drawn) [ICT-0000923, 3-{6-[(6-{4-[(4-{2-[(2S)-2-{[5-(1-methyl-1H-pyrazole-4-yl)-1H-[1,2,3]triazolo[4,5-b]pyrazine-1-yl]methyl}morpholine-4-day]pyrimidine-5-yl}phenyl)methyl]piperazine-1-yl}-6-oxohexyl)amino]-1-oxo-1,2-dihydrophthalazine-2-yl}piperidine-2,6-dione]
IC50 (SNU-638; Homo sapiens, SNU-638, 72 h): < 100 nM
IC50 (MKN-45; Homo sapiens, MKN-45, 72 h): < 100 nM
DC50 (c-MET [2]; Table 1): < 100 nM

Cc1nn(C2CCC(=O)NC2=O)c(=O)c2ccc(N3CCN(C4CN(CCN5CCC(COc6cnc(-c7cccc(Cn8nc(-c9cccc(C#N)c9)ccc8=O)c7)nc6)CC5)C4)CC3)cc12 (stereo not drawn) [ICT-0001325]
IC50 (SNU-638; Homo sapiens, SNU-638, 72 h): < 100 nM
DC50 (c-MET [1]): > 1000 nM

N#Cc1cccc(-c2ccc(=O)n(Cc3cccc(-c4ncc(OCC5CCN(CCCC#Cc6ccc7c(=O)n(C8CCC(=O)NC8=O)ncc7c6)CC5)cn4)c3)n2)c1 (stereo not drawn) [ICT-0001305]
IC50 (SNU-638; [3]): < 100 nM

Cn1cc(-c2cnc3c(nnn3C[C@@H]3CN(c4ncc(-c5ccc(CN6CCN(C(=O)COCCOCCOCCOCCNc7ccc8c(=O)n(C9CCC(=O)NC9=O)ncc8c7)CC6)cc5)cn4)CCO3)n2)cn1 (stereo partly drawn) [ICT-0000939, 3-[6-(15-{4-[(4-{2-[(2S)-2-{[5-(1-methyl-1H-pyrazole-4-yl)-1H-[1,2,3]triazolo[4,5-b]pyrazine-1-yl]methyl}morpholine-4-il]pyrimidine-5-yl}phenyl)methyl]piperazine-1-yl}-15-oxo-4,7,10,13-tetraoxa-1-azpentadecan-1-yl)-1-oxo-1,2-dihydroptalazine-2-yl]piperidin-2,6-dione]
IC50 (MKN-45; [4]): 100 to 1000 nM
DC50 (c-MET [2]; Table 1): > 1000 nM

Cc1cc2c(=O)n(C3CCC(=O)NC3=O)nc(C)c2cc1N1CCN(CC2CCN(CCN3CCC(COc4cnc(-c5cccc(Cn6nc(-c7cccc(C#N)c7)ccc6=O)c5)nc4)CC3)CC2)CC1 (stereo not drawn) [ICT-0001319]
IC50 (SNU-638; [3]): < 100 nM

N#Cc1cccc(-c2ccc(=O)n(Cc3cccc(-c4ncc(OCC5CCN(CC(=O)NCCCCCc6ccc7c(=O)n(C8CCC(=O)NC8=O)ncc7c6)CC5)cn4)c3)n2)c1 (stereo not drawn) [ICT-0001206]
IC50 (MKN-45; Homo sapiens, MKN-45, 72 h): < 100 nM
DC50 (c-MET [2]; Table 2): < 100 nM

Cc1nn(C2CCC(=O)NC2=O)c(=O)c2cc(N3CCC(N4CCN(C(=O)CN5CCC(COc6cnc(-c7cccc(Cn8nc(-c9cccc(C#N)c9)ccc8=O)c7)nc6)CC5)CC4)CC3)ccc12 (stereo not drawn) [ICT-0001233, 3-(1-(3-(5-((1-(2-(4-(1-(3-(2,6-dioxopiperidine-3-yl)-1-methyl-4-oxo-3,4-dihydropthalazine-6-yl)piperidine-4-yl)piperazine-1-yl)2-oxoethyl)piperidine-4-il)methoxy)pyrimidine-2-yl)benzyl)6-oxo-1,6-dihydropyridine-3-yl)benzonitrile]
IC50 (MKN-45; Homo sapiens, MKN-45, 72 h): < 100 nM
DC50 (c-MET [2]; Table 2): < 100 nM

Cn1cc(-c2cnc3c(nnn3C[C@@H]3CN(c4ncc(-c5ccc(CN6CCN(C(=O)CCCCCCNc7ccc8c(=O)n(C9CCC(=O)NC9=O)ncc8c7)CC6)cc5)cn4)CCO3)n2)cn1 (stereo partly drawn) [ICT-0000925, 3-(6-((7-(4-(4-(2-((S)-2-((5-(1-methyl-1H-pyrazole-4-yl)-1H-[1,2,3]triazolo[4,5-b]pyrazine-1-yl)methyl)morpholino)pyrimidine-5-yl)benzyl)piperazine-1-yl)7-oxoheptyl)amino)1-oxopthalazine-2(1H)-yl)piperidine-2,6-dione]
IC50 (SNU-638; SNU-638 cells, 72 hours, WST-8, Table 1): < 100 nM
IC50 (MKN-45; [4]): < 100 nM
DC50 (c-MET [2]; Table 1): < 100 nM

Cc1nn(C2CCC(=O)NC2=O)c(=O)c2cc(N3CCC(CN4CCN(C(=O)CN5CCC(COc6cnc(-c7cccc(Cn8nc(-c9cccc(C#N)c9)ccc8=O)c7)nc6)CC5)CC4)CC3)ccc12 (stereo not drawn) [ICT-0001234]
IC50 (MKN-45; Homo sapiens, MKN-45, 72 h): < 100 nM
DC50 (c-MET [2]; Table 2): > 1000 nM

Cc1nn(C2CCC(=O)NC2=O)c(=O)c2ccc(N3CCN(CCCCC(=O)N4CCC(COc5cnc(-c6cccc(Cn7nc(-c8cccc(C#N)c8)ccc7=O)c6)nc5)CC4)CC3)cc12 (stereo not drawn) [ICT-0001176]
IC50 (MKN-45; Homo sapiens, MKN-45, 72 h): < 100 nM
DC50 (c-MET [2]; Table 2): < 100 nM

Cn1cc(-c2cnc3c(nnn3C[C@@H]3CN(c4ncc(-c5ccc(CN6CCN(C(=O)CCCNc7cccc8cnn(C9CCC(=O)NC9=O)c(=O)c78)CC6)cc5)cn4)CCO3)n2)cn1 (stereo partly drawn) [ICT-0000969]
IC50 (MKN-45; Homo sapiens, MKN-45, 72 h): < 100 nM
DC50 (c-MET [2]; Table 1): < 100 nM

Cc1nn(C2CCC(=O)NC2=O)c(=O)c2ccc(N3CCN(C4CCN(CC(=O)N5CCC(COc6cnc(-c7cccc(Cn8nc(-c9cccc(C#N)c9)ccc8=O)c7)nc6)CC5)CC4)CC3)cc12 (stereo not drawn) [ICT-0001255]
IC50 (SNU-638; Homo sapiens, SNU-638, 72 h): < 100 nM
IC50 (MKN-45; Homo sapiens, MKN-45, 72 h): < 100 nM
DC50 (c-MET [2]; Table 2): < 100 nM

Cn1cc(-c2cnc3c(nnn3C[C@@H]3CN(c4ncc(-c5ccc(CN6CCN(C(=O)COCCOCCOCCNc7ccc8c(=O)n(C9CCC(=O)NC9=O)ncc8c7)CC6)cc5)cn4)CCO3)n2)cn1 (stereo partly drawn) [ICT-0000938, 3-[6-(12-{4-[(4-{2-[(2S)-2-{[5-(1-methyl-1H-pyrazole-4-yl)-1H-[1,2,3]triazolo[4,5-b]pyrazine-1-yl]methyl}morpholine-4-day]pyrimidine-5-yl}phenyl)methyl]piperazine-1-yl}-12-oxo-4,7,10-trioxa-1-azadodecane-1-yl)-1-oxo-1,2-dihydroptalazine-2-yl]piperidine-2,6-dione]
IC50 (MKN-45; Homo sapiens, MKN-45, 72 h): 100 to 1000 nM
DC50 (c-MET [2]; Table 1): > 1000 nM

Cc1nn(C2CCC(=O)NC2=O)c(=O)c2ccc(N3CCN(CC4CN(C(=O)CN5CCC(COc6cnc(-c7cccc(Cn8nc(-c9cccc(C#N)c9)ccc8=O)c7)nc6)CC5)C4)CC3)cc12 (stereo not drawn) [ICT-0001235]
IC50 (MKN-45; Homo sapiens, MKN-45, 72 h): < 100 nM
DC50 (c-MET [2]; Table 2): < 100 nM

Cc1nn(C2CCC(=O)NC2=O)c(=O)c2ccc(N3CCC(CN4CCN(CC(=O)N5CCC(COc6cnc(-c7cccc(Cn8nc(-c9cccc(C#N)c9)ccc8=O)c7)nc6)CC5)CC4)CC3)cc12 (stereo not drawn) [ICT-0001213]
IC50 (MKN-45; Homo sapiens, MKN-45, 72 h): < 100 nM
DC50 (c-MET [2]; Table 2): < 100 nM

Cc1nn(C2CCC(=O)NC2=O)c(=O)c2ccc(N3CCN(CC4CN(CC(=O)N5CCC(COc6cnc(-c7cccc(Cn8nc(-c9cccc(C#N)c9)ccc8=O)c7)nc6)CC5)C4)CC3)cc12 (stereo not drawn) [ICT-0001253]
IC50 (MKN-45; Homo sapiens, MKN-45, 72 h): < 100 nM
DC50 (c-MET [2]; Table 2): < 100 nM
